PMC5011342, “A high throughput drug screening assay to identify compounds that promote oligodendrocyte differentiation using acutely dissociated and purified oligodendrocyte precursor cells” (BMC Research Notes, 2016)
Where a name gives a salt, the structure may show the parent alone. Read-outs that look alike come from different tables or passages of the source.

Key:
[1] = test system: acutely dissociated and purified rat OPCs; test: Acute OL differentiation assay (MBP expression/cell, immunofluorescent image quantification); format: cell-based; settings: sheet "All OLga data"; for activation at 0.4 µM / activation at 2 µM / activation at 10 µM / activation at 0.08 µM: Rattus norvegicus; for activation at 0.08 µM: test compound at 0.08 uM, read-out: 0.08 uM (% Quet)
Method in brief: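 This acute differentiation assay used purified rat OPCs from postnatal day 6–7 pups, seeded into PDL/laminin-coated 96-well plates in differentiation medium lacking PDGF and FGF. Compounds were applied in quadruplicate after a 1–2 h preincubation at 37 °C, 10 % CO2, with 0.1 % DMSO negative and 40 ng/ml T3 positive controls in eight wells. After fixation on DIV4, anti-MBP immunofluorescence images yielded MBP expression/cell.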

expanded OPCs = test: cells; settings: for viability at 0.1 µM / viability at 1 µM / viability at 10 µM: Rattus norvegicus, 72 h
Protocol: Having established a consistent assay for measuring OL differentiation in vitro, the next step was to utilize this assay to assess the ability of a wide array of compounds to promote OL differentiation. Prior to library screening, we first established the maximum non-toxic dose of each compound in the library. […] Therefore, we added each compound in the NIH clinical collection (NCC) library to OPCs at 10, 1, and 0.1 µM concentrations. Three days later, we assessed viability of the treated cells by measuring AlamarBlue fluorescence, a measure of cell viability (see “Methods” section). […] Appropriately, we established three sets of screening concentrations for library compounds: non-toxic compounds were tested at 10 and 2 µM, slightly toxic compounds (only toxic at 10 µM) were tested at 2 and 0.4 µM, and very toxic compounds were tested at 0.4 and 0.08 µM.
OPCs were expanded in vitro by seeding into PDL-coated tissue culture flasks at 1000–2000 cells/cm^2 in differentiation media supplemented with 10 ng/ml PDGF-AA. Proliferating OPCs were fed every 2–3 days and supplemented with 2–3× concentration of PDGF as needed to prevent OPC differentiation. After 6–7 days of proliferation, OPCs were harvested by trypsinization, plated into PDL-coated 96-well Falcon plates and centrifuged at 200×g to facilitate cell attachment, survival, and even distribution of cells. Expanded OPCs were seeded in differentiation media at 10,000 cells/well and incubated for 2 h at 37 °C, 10 % CO2 prior to addition of compounds. The NCC library was diluted and added to cells at 10, 1, and 0.1 µM; each concentration was tested in quadruplicate. As a positive control for the induction of toxicity, 5 ng/ml tunicamycin was added to 8 wells in each plate. Three days later, a 1:10 dilution of alamarBlue® (AB) was added to each well and cells were incubated 4 h at 37 °C, 10 % CO2. AB fluorescence was measured using a PerkinElmer Victor II fluorescence microplate reader (PerkinElmer, Waltham, MA) with 560 nm excitation/590 nm emission filters. For library screening, the highest concentration of each compound was adjusted to a minimally toxic concentration based on this toxicity data. Compounds were additionally tested at a second concentration that was 1/5th of the top concentration. The final concentration of DMSO in each well was 0.1 %.

[2] = test compound at 0.4 uM, NCC library screen, relative to quetiapine, read-out: 0.4 uM (% Quet)
[3] = test compound at 2 uM, NCC library screen, relative to quetiapine, read-out: 2 uM (% Quet)
[4] = alamarBlue viability of expanded OPCs, compound at 0.1 µM, relative to DMSO control
[5] = alamarBlue viability of expanded OPCs, compound at 1 µM, relative to DMSO control
[6] = alamarBlue viability of expanded OPCs, compound at 10 µM, relative to DMSO control
[7] = 2 uM test compound, relative to quetiapine, read-out: OL differentiation, 2 uM (% Quet)
[8] = 10 uM test compound, relative to quetiapine, read-out: OL differentiation, 10 uM (% Quet)
[9] = read-out: 0.1 µM (% DMSO), alamarBlue viability of expanded OPCs, compound at 0.1 µM, sheet All Tox data
[10] = read-out: 1 µM (% DMSO), alamarBlue viability of expanded OPCs, compound at 1 µM, sheet All Tox data
[11] = read-out: 10 µM (% DMSO), alamarBlue viability of expanded OPCs, compound at 10 µM, sheet All Tox data
[12] = NCC library screen, relative to quetiapine
[13] = read-out: 0.1 µM (% DMSO), alamarBlue viability, NCC library compound at 0.1 µM, sheet "All Tox data"
[14] = read-out: 1 µM (% DMSO), alamarBlue viability, NCC library compound at 1 µM, sheet "All Tox data"
[15] = read-out: 10 µM (% DMSO), alamarBlue viability, NCC library compound at 10 µM, sheet "All Tox data"
[16] = test compound at 2 uM, MBP expression relative to quetiapine, NCC library screen, read-out: 2 uM (% Quet)
[17] = test compound at 10 uM, MBP expression relative to quetiapine, NCC library screen, read-out: 10 uM (% Quet)
[18] = test compound at 10 uM, NCC library screen, relative to quetiapine, read-out: 10 uM (% Quet)

In the case of `CN(C)CCC=C1c2ccccc2CCc2ccccc21` [Amitriptyline], the activation at 0.4 µM [1, 2] is reported as -6%, the activation at 2 µM [1, 3] is reported as -23.5% and the “0.1 µM (% DMSO)” value (expanded OPCs; [4]) is reported as 82.0 % DMSO. The “1 µM (% DMSO)” value (expanded OPCs; [5]) was 60.1 % DMSO and the “10 µM (% DMSO)” value (expanded OPCs; [6]) was 18.3 % DMSO.

Work on `CC(C)c1ccc2oc3nc(N)c(C(=O)O)cc3c(=O)c2c1` [Amlexanox] yielded an activation at 2 µM [1, 7] of -11.6%, an activation at 10 µM [1, 8] of -20% and a viability at 0.1 µM (expanded OPCs; [9]) of 84.3%. The viability at 1 µM (expanded OPCs; [10]) was 88.6% and the viability at 10 µM (expanded OPCs; [11]) was 91.9%.

For `CCOC(=O)C1=C(COCCN)NC(C)=C(C(=O)OC)C1c1ccccc1Cl` (stereo not drawn) [Amlodipine], the activation at 0.08 µM [1, 12] was -17.1%, the activation at 0.4 µM [1, 2] was -39.6% and the viability at 0.1 µM (expanded OPCs; [13]) was 69.7%. It also gave a viability at 1 µM (expanded OPCs; [14]) of 22.7% and a viability at 10 µM (expanded OPCs; [15]) of 8.6%.

`Clc1ccc2c(c1)C(N1CCNCC1)=Nc1ccccc1O2` [Amoxapine] was tested, and the activation at 0.08 µM [1, 12] was 13%, the activation at 0.4 µM [1, 2] was -10.8% and the viability at 0.1 µM (expanded OPCs; [13]) was 62%. The viability at 1 µM (expanded OPCs; [14]) was 40% and the viability at 10 µM (expanded OPCs; [15]) was 19.2%.

In the case of `CC1(C)S[C@@H]2[C@H](NC(=O)[C@H](N)c3ccc(O)cc3)C(=O)N2[C@H]1C(=O)O` [Amoxicillin], the activation at 2 µM [1, 16] is reported as 17.9%, the activation at 10 µM [1, 17] is reported as -7% and the “0.1 µM (% DMSO)” value (expanded OPCs; [4]) is reported as 93.8 % DMSO. The “1 µM (% DMSO)” value (expanded OPCs; [5]) was 104.4 % DMSO and the “10 µM (% DMSO)” value (expanded OPCs; [6]) was 96.1 % DMSO.

In the case of `CC1(C)S[C@@H]2[C@H](NC(=O)[C@H](N)c3ccccc3)C(=O)N2[C@H]1C(=O)O` [Ampicillin], the activation at 2 µM [1, 16] is reported as -10.9%, the activation at 10 µM [1, 17] is reported as -36.2% and the “0.1 µM (% DMSO)” value (expanded OPCs; [4]) is reported as 88.7 % DMSO. For the same compound, the “1 µM (% DMSO)” value (expanded OPCs; [5]) was 94.1 % DMSO and the “10 µM (% DMSO)” value (expanded OPCs; [6]) was 94.1 % DMSO.

`CCOC(=O)OC(C)OC1=C(C(=O)Nc2ccccn2)N(C)S(=O)(=O)c2ccccc21` (stereo not drawn) [Ampiroxicam] gave an activation at 2 µM [1, 3] of 12.7%, an activation at 10 µM [1, 18] of -2% and a viability at 0.1 µM (expanded OPCs; [13]) of 97.8%. It also gave a viability at 1 µM (expanded OPCs; [14]) of 82.6% and a viability at 10 µM (expanded OPCs; [15]) of 90.8%.

`O=C1CN2Cc3c(ccc(Cl)c3Cl)N=C2N1` [Anagrelide hydrochloride] was tested, and the activation at 2 µM [1, 7] was -7%, the activation at 10 µM [1, 8] was -4.5% and the viability at 0.1 µM (expanded OPCs; [13]) was 93.1%. For the same compound, the viability at 1 µM (expanded OPCs; [14]) was 90.4% and the viability at 10 µM (expanded OPCs; [15]) was 81.2%.

`CC(C)(C#N)c1cc(Cn2cncn2)cc(C(C)(C)C#N)c1` [Anastrozole] showed an activation at 2 µM [1, 3] of -29.6%, an activation at 10 µM [1, 18] of -33% and a viability at 0.1 µM (expanded OPCs; [13]) of 87.4%. It also gave a viability at 1 µM (expanded OPCs; [14]) of 92.9% and a viability at 10 µM (expanded OPCs; [15]) of 80.3%.

With `CC1CNc2c(cccc2S(=O)(=O)N[C@@H](CCCNC(=N)N)C(=O)N2CC[C@@H](C)C[C@@H]2C(=O)O)C1` (stereo partly drawn) [Argatroban] the activation at 2 µM [1, 7] was 0.26%, the activation at 10 µM [1, 8] was 2.3% and the viability at 0.1 µM (expanded OPCs; [9]) was 103%. The viability at 1 µM (expanded OPCs; [10]) was 101% and the viability at 10 µM (expanded OPCs; [11]) was 93%.

Work on `O=C1CCc2ccc(OCCCCN3CCN(c4cccc(Cl)c4Cl)CC3)cc2N1` [Aripiprazole] yielded an activation at 0.4 µM ([1]; 0.4 uM test compound, relative to quetiapine, read-out: OL differentiation, 0.4 uM (% Quet)) of -30.6%, an activation at 2 µM [1, 7] of -18.8% and a viability at 0.1 µM (expanded OPCs; [9]) of 88.2%. It also gave a viability at 1 µM (expanded OPCs; [10]) of 86.5% and a viability at 10 µM (expanded OPCs; [11]) of 11.3%.

`CO[C@H]1O[C@@H]2O[C@@]3(C)CC[C@H]4[C@H](C)CC[C@@H]([C@H]1C)[C@@]24OO3` [Artemethe] was tested, and the “2 uM (% Quet)” value ([1]; test compound at 2 uM, NCC library screen, relative to quetiapine) was -5.4 % Quet, the “10 uM (% Quet)” value ([1]; test compound at 10 uM, NCC library screen, relative to quetiapine) was -21.6 % Quet and the “0.1 µM (% DMSO)” value (expanded OPCs; alamarBlue viability, NCC library compound at 0.1 µM, sheet "All Tox data") was 81.3 % DMSO. For the same compound, the “1 µM (% DMSO)” value (expanded OPCs; alamarBlue viability, NCC library compound at 1 µM, sheet "All Tox data") was 76.5 % DMSO and the “10 µM (% DMSO)” value (expanded OPCs; alamarBlue viability, NCC library compound at 10 µM, sheet "All Tox data") was 77.8 % DMSO.
